Patent US20230302083A1, “HIGHLY-NETWORKED C[…] COMPOSITION” (priority 2020, published 2023)

Legend:
HLA-A*0301 = target: T1, HLA-A*0301 (Homo sapiens, UniProt P04439); assay: HLA class I-peptide stability assay in TAP-deficient HLA-A*0301 mono-allelic cells; format: cell-based
T1 construct: expressed in transfected cells; host or cells: TAP-deficient (CRISPR/Cas9) HLA-A*0301 mono-allelic 721.221 human B cells

HLA class I alleles = format: cell-based, human

Q: RVIHFGAGSDK [A3 COVID 3] was tested. Which “HLA-A*0301 stabilization” value (HLA-A*0301) did it give?
A: HLA stabilizing

Q: For MIAQYTSAL [B7 COVID 16], which “stabilization of HLA class I alleles” value (HLA class I alleles) is on record?
A: stabilized a number of HLA class I alleles

Q: For NPLLYDANYFL [B81 COVID 14], which “50% Experimental Binder” value (HLA class I alleles) is on record?
A: YES

Q: For YQDVNCTEV [B39 COVID 11], which “50% Experimental Binder” value (HLA class I alleles) is on record?
A: YES

Q: With KGIYQTSNFR [A3 COVID 15] as the sequence, how does the “HLA-A*0301 stabilization” value (HLA-A*0301) read?
A: HLA stabilizing
